In brackets after ≈: the same amount, converted by molar mass. Residues, ends and D or L forms follow the SMILES beside them.
Experiments:
in vitro [1] = settings: Beagle, dog, plasma
in vitro [2] = settings: human
in vitro [3] = settings: human, plasma
in vitro [4] = settings: SD, HW or BN, rat, plasma
physchem [5] = settings: octan-1-ol/water
physchem [6] = settings: pH 7.4 buffer
in vitro [7] = settings: hepatocytes

Row | SMILES | fraction unbound at 5 h (in vitro [1]) | microsomal CLint (in vitro [2]; microsomes) | fraction unbound at 5 h (in vitro [3]; PPB) | fraction unbound at 5 h (in vitro [4]) | microsomal CLint (in vitro [2]; liver microsomes) | logD (physchem [5]; pH 7.4, LogD7.4) | solubility thermodynamic (physchem [6]) | hepatocyte CLint (in vitro [7]) | fraction unbound at 5 h (in vitro [3]) | logD (physchem [5]; pH 7.4)
1 | N#Cc1cccc(-c2cc(Cl)ccc2OCC(=O)O)c1 | 0.0234 | < 3 µL/min/mg | 0.0075 | 0.0343 | – | – | – | – | – | –
2 | C[C@H](NC(=O)[C@@H](Cc1c[nH]c2ccccc12)NC(=O)[C@@H](N)Cc1c[nH]cn1)C(=O)N[C@@H](Cc1c[nH]c2ccccc12)C(=O)N[C@H](Cc1ccccc1)C(=O)N[C@@H](CCCCN)C(N)=O (HELM PEPTIDE1{H.[dW].A.W.[dF].K.[am]}$$$$V2.0) | 0.183 | – | – | 0.262 | 61.7 µL/min/mg | – | – | – | – | –
3 | COCCOC(=O)C1=C(C)NC(C)=C(C(=O)OC(C)C)C1c1cccc([N+](=O)[O-])c1 (stereo not given) [NIMODIPINE] | 0.0116 | – | 0.0183 | 0.0175 | – | 3.8 | 3.1 µM (≈ 1.3 µg/mL) | – | – | –
4 | Cc1cc(Nc2cnc(C#N)c(N[C@@H](C)c3ncc(F)cn3)n2)n[nH]1 | 0.398 | – | 0.186 | 0.376 | – | 1.96 | – | – | – | –
5 | N[C@H]1CCN(c2c(Cl)cccc2/C=C2\SC(=O)NC2=O)C1 | 0.0581 | – | 0.0234 | 0.0467 | – | 1.89 | – | – | – | –
6 | Cc1cc(Nc2nc(O[C@@H](C)c3ncc(F)cn3)ncc2Cl)[nH]n1 | 0.489 | – | 0.249 | 0.339 | – | 1.82 | – | – | – | –
7 | O=c1cc(N2CCOCC2)nc2n(Cc3cccc4ccccc34)ccn12 | 0.0676 | – | 0.0307 | 0.0477 | – | 3.3 | – | – | – | –
8 | CC1=C(C)C(=O)C(C(CCCCCC(=O)O)c2ccccc2)=C(C)C1=O (stereo not given) [SERATRODAST] | 0.02 | 3 µL/min/mg | – | – | – | 2.48 | – | 85 µL/min/1e6 cells | – | –
9 | COc1cc2c(cc1-c1c(C)noc1C)ncc1[nH]c(=O)n([C@H](C)c3ccccn3)c12 | 0.105 | 7.59 µL/min/mg | 0.0234 | 0.0374 | – | 3.15 | – | – | – | –
10 | N#CC[C@H](C1CCCC1)n1cc(-c2ncnc3[nH]ccc23)cn1 [RUXOLITINIB] | 0.166 | – | 0.0532 | 0.173 | – | 2.55 | – | – | – | –
11 | O=c1[nH]c2ccccc2n1CCCN1CCC(n2c(=O)[nH]c3cc(Cl)ccc32)CC1 [DOMPERIDONE] | 0.0872 | – | – | 0.069 | – | – | – | – | 0.0335 | 3.45
12 | CC(C)Oc1cc(-n2cnc3ccc(N[C@@H](CO)c4ccc(F)cn4)nc32)n[nH]1 | 0.304 | – | 0.0818 | 0.186 | – | 2.79 | – | – | – | –
13 | Cc1cc(Nc2cnc(C#N)c(N[C@@H](C)c3ccc(F)cn3)n2)n[nH]1 | 0.204 | – | 0.145 | 0.16 | – | 2.51 | – | – | – | –
14 | CCCCNC(=O)c1ccc(Oc2ccc(CC(=O)O)cc2OC)c(NS(=O)(=O)c2ccc(Cl)cc2Cl)c1 | 0.0171 | < 3 µL/min/mg | 0.002 | 0.0019 | – | – | – | – | – | –
15 | Cc1cn([C@H]2CCCN([C@@H](C)c3ccc(C(=O)O)c(Oc4cccc(Cl)c4)c3)C2)c(=O)[nH]c1=O | 0.0532 | – | 0.0229 | 0.0268 | – | -0.26 | – | – | – | –
16 | COC[C@H](O)Cn1c(=O)cnn(-c2ccc(Cl)c(C(=O)NCC3(O)CCCCCC3)c2)c1=O [CE-224535] | 0.552 | – | 0.415 | 0.477 | – | 1.46 | – | – | – | –
17 | O=C(Nc1ccccc1F)N[C@H]1N=C(c2ccccc2)c2ccccc2NC1=O [RSV-604] | 0.0307 | – | – | 0.0274 | – | – | 2.6 µM (≈ 1.01 µg/mL) | – | 0.0366 | 4
18 | O=C(O)[C@H](Cc1ccc(F)cc1)N1CCC(CN2CCC(Oc3ccc(Cl)c(Cl)c3)CC2)CC1 | 0.224 | – | 0.114 | 0.22 | – | 2.98 | 72.4 µM (≈ 36.9 µg/mL) | – | – | –

— ChEMBL document CHEMBL3301361, “Experimental in vitro DMPK and physicochemical data on a set of publicly disclosed compounds”
